ChEMBL document CHEMBL1145182, “Molecular dynamics simulations of the TEM-1 beta-lactamase complexed with cephalothin” (J Med Chem, 2005)

Target: Beta-lactamase TEM (Escherichia coli) (UniProt P62593)
Assay: Rate of catalysis against TEM-1 beta-lactamase

Sequence of Beta-lactamase TEM (Escherichia coli) (P62593 whole entry): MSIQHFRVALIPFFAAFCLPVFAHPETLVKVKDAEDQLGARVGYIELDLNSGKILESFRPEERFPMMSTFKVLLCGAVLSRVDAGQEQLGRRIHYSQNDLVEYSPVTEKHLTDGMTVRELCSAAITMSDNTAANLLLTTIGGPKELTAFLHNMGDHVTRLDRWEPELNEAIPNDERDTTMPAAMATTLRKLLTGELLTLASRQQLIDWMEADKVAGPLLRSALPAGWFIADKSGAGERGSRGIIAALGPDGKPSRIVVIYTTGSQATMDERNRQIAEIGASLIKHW

| K cat | SMILES |
| --- | --- |
| 1280 1/S | CC1(C)S[C@@H]2[C@H](NC(=O)Cc3ccccc3)C(=O)N2[C@H]1C(=O)O |
| 115 1/S | CC(=O)OCC1=C(C(=O)O)N2C(=O)[C@@H](NC(=O)Cc3cccs3)[C@H]2SC1 |
